We go through 19 compounds from patent publication US8129366B2, “VLA-4 inhibitory drug” (Daiichi Sankyo Company, Limited, priority 2005, dated 2012).

For this assay, the target named is T1, hα4 and β1 integrins (Homo sapiens, UniProt P05556+P13612).
T1 construct: expressed in transfected cells; host or cells: CHO cells
Nature of the assay: In vitro inhibition of binding between CHO cells expressing hα4 and β1 integrins and Eu3+-hVCAM-1 D1D7-IgG. The note with it: for Ki: CHO cells expressing hα4 and β1 integrins, Eu3+-hVCAM-1 D1D7-IgG ligand, without HSA; for IC50: in the presence of 3% human serum albumin (HSA final concentration 3%). The essentials: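 Bound europium-labelled VCAM-1 D1D7-IgG on α4β1-expressing CHO cells was measured by time-resolved fluorescence after washing at 4 °C. Ligand (2 nM working dilution) and test compound, with or without 3% final HSA, were co-incubated for 1 h at room temperature in Mn²⁺-containing HEPES buffer, pH 7.5. IC50 came from % binding inhibition; Ki was calculated from ligand concentration and Scatchard Kd.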

T1 sequence (P13612 34-1032): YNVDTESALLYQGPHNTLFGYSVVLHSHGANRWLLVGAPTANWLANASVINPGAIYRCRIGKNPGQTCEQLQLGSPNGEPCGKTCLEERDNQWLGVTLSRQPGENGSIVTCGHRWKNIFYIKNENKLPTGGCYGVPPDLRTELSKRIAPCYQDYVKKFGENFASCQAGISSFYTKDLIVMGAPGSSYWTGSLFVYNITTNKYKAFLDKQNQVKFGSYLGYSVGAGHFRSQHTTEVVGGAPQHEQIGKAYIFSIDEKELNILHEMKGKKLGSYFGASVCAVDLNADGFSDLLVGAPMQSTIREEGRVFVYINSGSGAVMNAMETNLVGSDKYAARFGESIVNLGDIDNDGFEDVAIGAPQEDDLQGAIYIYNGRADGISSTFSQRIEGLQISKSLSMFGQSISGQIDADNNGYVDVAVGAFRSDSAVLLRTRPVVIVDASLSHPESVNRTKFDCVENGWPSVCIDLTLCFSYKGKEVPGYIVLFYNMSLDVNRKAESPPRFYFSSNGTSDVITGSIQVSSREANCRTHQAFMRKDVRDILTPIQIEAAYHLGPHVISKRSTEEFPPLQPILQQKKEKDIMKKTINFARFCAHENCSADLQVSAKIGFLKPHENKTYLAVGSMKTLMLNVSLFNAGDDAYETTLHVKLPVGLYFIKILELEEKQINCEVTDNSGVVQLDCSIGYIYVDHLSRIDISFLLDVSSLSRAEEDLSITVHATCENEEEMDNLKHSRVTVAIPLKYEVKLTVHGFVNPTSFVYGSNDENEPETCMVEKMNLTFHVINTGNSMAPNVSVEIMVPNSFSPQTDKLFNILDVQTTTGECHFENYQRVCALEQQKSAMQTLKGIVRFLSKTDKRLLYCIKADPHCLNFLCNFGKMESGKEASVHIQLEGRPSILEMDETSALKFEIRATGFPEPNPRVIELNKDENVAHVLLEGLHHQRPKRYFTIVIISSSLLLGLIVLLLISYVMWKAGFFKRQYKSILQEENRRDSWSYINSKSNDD
T1 sequence (P05556 21-798): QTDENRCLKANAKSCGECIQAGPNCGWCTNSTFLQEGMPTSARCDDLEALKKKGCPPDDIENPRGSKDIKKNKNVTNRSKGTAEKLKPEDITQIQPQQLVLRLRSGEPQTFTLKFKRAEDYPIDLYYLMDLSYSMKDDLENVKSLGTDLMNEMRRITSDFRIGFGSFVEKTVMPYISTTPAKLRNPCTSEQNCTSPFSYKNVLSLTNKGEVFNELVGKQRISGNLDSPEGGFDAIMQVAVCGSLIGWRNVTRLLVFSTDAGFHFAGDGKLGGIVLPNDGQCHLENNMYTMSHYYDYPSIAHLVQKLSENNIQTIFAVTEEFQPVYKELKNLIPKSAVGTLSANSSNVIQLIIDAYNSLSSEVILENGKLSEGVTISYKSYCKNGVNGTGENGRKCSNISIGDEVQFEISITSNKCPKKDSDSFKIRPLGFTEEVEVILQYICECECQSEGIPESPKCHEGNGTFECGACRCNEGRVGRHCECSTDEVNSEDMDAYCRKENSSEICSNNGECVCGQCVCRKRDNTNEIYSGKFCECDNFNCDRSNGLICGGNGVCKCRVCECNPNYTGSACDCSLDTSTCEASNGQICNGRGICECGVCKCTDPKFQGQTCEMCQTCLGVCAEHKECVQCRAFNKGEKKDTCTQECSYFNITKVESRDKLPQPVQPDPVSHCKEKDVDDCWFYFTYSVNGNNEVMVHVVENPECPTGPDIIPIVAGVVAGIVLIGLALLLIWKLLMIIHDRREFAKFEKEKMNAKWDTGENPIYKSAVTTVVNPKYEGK

Broadly, the Ki is the equilibrium dissociation constant of an inhibitor or competing ligand from its target. As usually defined, the IC50 is the concentration at which inhibition is half-maximal. In the case of `O=C(Nc1cc(Cl)c(CC(=O)N2C[C@@H](N3CCN(C4CCCCC4)CC3)C[C@H]2CO[C@H]2CC[C@H](C(=O)O)CC2)cc1Cl)c1coc2ccccc12` [Example 143, Trans-4-[1-[[4-[(benzo[b]furan-3-ylcarbonyl)amino]-2,5-dichlorophenyl]acetyl]-(4S)-[4-cyclohexylpiperazin-1-yl]-(2S)-pyrrolidinylmethoxy]cyclohexanecarboxylic acid], affinity was put at a Ki of 3.5 nM and the IC50 was 14 nM.
For the compound `CCOC[C@@H]1CCCN1[C@H]1C[C@@H](CO[C@H]2CC[C@H](C(=O)O)CC2)N(C(=O)Cc2cc(Cl)c(NC(=O)c3csc4ccccc34)cc2Cl)C1` [Example 43, Trans-4-[1-[[4-[(benzo[b]thiophen-3-ylcarbonyl)amino]-2,5-dichlorophenyl]acetyl]-(4S)-[(2S)-ethoxymethylpyrrolidin-1-yl]-(2S)-pyrrolidinylmethoxy]cyclohexanecarboxylic acid], affinity was put at a Ki of 2 nM and the IC50 turned out to be 38 nM.
On to `CO[C@H]1CN([C@H]2C[C@@H](CO[C@H]3CC[C@H](C(=O)O)CC3)N(C(=O)Cc3cc(Cl)c(NC(=O)c4cn(C)c5ccccc45)cc3Cl)C2)C[C@H]1OC` [Example 56, Trans-4-[1-[[2,5-dichloro-4-[(1-methyl-1H-indol-3-ylcarbonyl)amino]phenyl]acetyl]-(4S)-(cis-3,4-dimethoxypyrrolidin-1-yl)-(2S)-pyrrolidinylmethoxy]cyclohexanecarboxylic acid], for which the Ki amounted to 2.4 nM and the IC50 was found to be 9.2 nM.
For `COC1CN([C@H]2C[C@@H](CO[C@H]3CC[C@H](C(=O)O)CC3)N(C(=O)Cc3cc(Cl)c(NC(=O)c4coc5ccccc45)cc3Cl)C2)C1` [Example 6, Trans-4-[1-[[4-[(benzo[b]furan-3-ylcarbonyl)amino]-2,5-dichlorophenyl]acetyl]-(4S)-(3-methoxyazetidin-1-yl)-(2S)-pyrrolidinylmethoxy]cyclohexanecarboxylic acid] the same measures were 5.9 nM and 76 nM.
Take `CC1CN([C@H]2C[C@@H](CO[C@H]3CC[C@H](C(=O)O)CC3)N(C(=O)Cc3cc(Cl)c(NC(=O)c4coc5ccccc45)cc3F)C2)C1` [Example 11, Trans-4-[1-[[4-[(benzo[b]furan-3-ylcarbonyl)amino]-5-chloro-2-fluorophenyl]acetyl]-(4S)-(3-methylazetidin-1-yl)-(2S)-pyrrolidinylmethoxy]cyclohexanecarboxylic acid]: the Ki amounted to 3.5 nM and the IC50 stood at 21 nM.
As for `CC1CN([C@H]2C[C@@H](CO[C@H]3CC[C@H](C(=O)O)CC3)N(C(=O)Cc3cc(Cl)c(NC(=O)c4cn(C)c5ccccc45)cc3Cl)C2)CC(C)O1` (stereo partly drawn) [Example 91, Trans-4-[1-[[2,5-dichloro-4-[(1-methyl-1H-indol-3-ylcarbonyl)amino]phenyl]acetyl]-(4S)-(2,6-dimethylmorpholin-4-yl)-(2S)-pyrrolidinylmethoxy]cyclohexanecarboxylic acid], the Ki came out at 2.4 nM and the IC50 worked out at 81 nM.
Take `CCO[C@H]1[C@H](N2CCCCC2)CN(C(=O)Cc2cc(Cl)c(NC(=O)c3cn(C)c4ccccc34)cc2F)[C@@H]1CO[C@H]1CC[C@H](C(=O)O)CC1` [Example 97, Trans-4-[1-[[5-chloro-2-fluoro-4-[(1-methyl-1H-indol-3-ylcarbonyl)amino]phenyl]acetyl]-(3R)-ethoxy-(4R)-(piperidin-1-yl)-(2R)-pyrrolidinylmethoxy]cyclohexanecarboxylic acid]: the Ki stood at 1.6 nM and the IC50 stood at 4.9 nM.
Take `O=C(Nc1cc(F)c(CC(=O)N2C[C@@H](N3CCC(F)CC3)C[C@H]2CO[C@H]2CC[C@H](C(=O)O)CC2)cc1Cl)c1csc2ccccc12` [Example 100, Trans-4-[1-[[4-[(benzo[b]thiophen-3-ylcarbonyl)amino]-5-chloro-2-fluorophenyl]acetyl]-(4S)-(4-fluoropiperidin-1-yl)-(2S)-pyrrolidinylmethoxy]cyclohexanecarboxylic acid]: the affinity, expressed as Ki, was 0.91 nM and the IC50 amounted to 3.9 nM.
For `O=C(Nc1cc(Cl)c(CC(=O)N2C[C@@H](N3CCCOCC3)C[C@H]2CO[C@H]2CC[C@H](C(=O)O)CC2)cc1Cl)c1coc2ccccc12` [Example 167, Trans-4-[1-[[4-[(benzo[b]furan-3-ylcarbonyl)amino]-2,5-dichlorophenyl]acetyl]-(4S)-([1,4]-oxazepan-4-yl)-(2S)-pyrrolidinylmethoxy]cyclohexanecarboxylic acid] the same measures were 4.4 nM and 19 nM.
For `O=C(Nc1cc(F)c(CC(=O)N2C[C@@H](N3CCC(F)(F)C3)C[C@H]2CO[C@H]2CC[C@H](C(=O)O)CC2)cc1Cl)c1csc2ccccc12` [Example 38, Trans-4-[1-[[4-[(benzo[b]thiophen-3-ylcarbonyl)amino]-5-chloro-2-fluorophenyl]acetyl]-(4S)-(3,3-difluoropyrrolidin-1-yl)-(2S)-pyrrolidinylmethoxy]cyclohexanecarboxylic acid] the same measures were 1.7 nM and 24 nM.
As to `O=C(Nc1cc(Cl)c(CC(=O)N2C[C@@H](N3CCCCC3)C[C@H]2CO[C@H]2CC[C@H](C(=O)O)CC2)cc1Cl)c1csc2ccccc12` [Example 95, Trans-4-[1-[[4-[(benzo[b]thiophen-3-ylcarbonyl)amino]-2,5-dichlorophenyl]acetyl]-(4S)-(piperidin-1-yl)-(2S)-pyrrolidinylmethoxy]cyclohexanecarboxylic acid], the Ki stood at 1.3 nM and the IC50 stood at 5.3 nM.
On to `CCOC1CCN([C@H]2C[C@@H](CO[C@H]3CC[C@H](C(=O)O)CC3)N(C(=O)Cc3cc(Cl)c(NC(=O)c4coc5ccccc45)cc3Cl)C2)CC1` [Example 105, Trans-4-[1-[[4-[(benzo[b]furan-3-ylcarbonyl)amino]-2,5-dichlorophenyl]acetyl]-(4S)-(4-ethoxypiperidin-1-yl)-(2S)-pyrrolidinylmethoxy]cyclohexanecarboxylic acid], for which the Ki worked out at 2 nM and the IC50 is 15 nM.
For `C[C@@H]1COC[C@H](C)N1[C@H]1C[C@@H](CO[C@H]2CC[C@H](C(=O)O)CC2)N(C(=O)Cc2cc(Cl)c(NC(=O)c3cn(C)c4ccccc34)cc2Cl)C1` [Example 93, Trans-4-[1-[[2,5-dichloro-4-[(1-methyl-1H-indol-3-ylcarbonyl)amino]phenyl]acetyl]-(4S)-(cis-3,5-dimethylmorpholin-4-yl)-(2S)-pyrrolidinylmethoxy]cyclohexanecarboxylic acid] the same measures were 3.6 nM and 22 nM.
With `O=C(Nc1cc(F)c(CC(=O)N2C[C@@H](N3CC(CF)C3)C[C@H]2CO[C@H]2CC[C@H](C(=O)O)CC2)cc1Cl)c1coc2ccccc12` [Example 13, Trans-4-[1-[[4-[(benzo[b]furan-3-ylcarbonyl)amino]-5-chloro-2-fluorophenyl]acetyl]-(4S)-[3-(fluoromethyl)azetidin-1-yl]-(2S)-pyrrolidinylmethoxy]cyclohexanecarboxylic acid], the Ki amounted to 7.7 nM and the IC50 was found to be 64 nM.
For the compound `COCCN1CCN([C@H]2C[C@@H](CO[C@H]3CC[C@H](C(=O)O)CC3)N(C(=O)Cc3cc(Cl)c(NC(=O)c4cn(C)c5ccccc45)cc3Cl)C2)CC1` [Example 137, Trans-4-[1-[[2,5-dichloro-4-[(1-methyl-1H-indol-3-ylcarbonyl)amino]phenyl]acetyl]-(4S)-(4-(2-methoxyethyl)piperazin-1-yl)-(2S)-pyrrolidinylmethoxy]cyclohexanecarboxylic acid], the inhibition constant Ki was determined as 2.9 nM and the IC50 is 8.7 nM.
For `O=C(Nc1cc(Cl)c(CC(=O)N2C[C@@H](N3CCCN(C4CC4)CC3)C[C@H]2CO[C@H]2CC[C@H](C(=O)O)CC2)cc1Cl)c1csc2ccccc12` [Example 169, Trans-4-[1-[[4-[(benzo[b]thiophen-3-ylcarbonyl)amino]2,5-dichlorophenyl]acetyl]-(4S)-(4-cyclopropyl-[1,4]-diazepan-1-yl)-(2S)-pyrrolidinylmethoxy]cyclohexanecarboxylic acid] the same measures were 1.1 nM and 5.9 nM.
For `CN1CCN([C@H]2C[C@@H](CO[C@H]3CC[C@H](C(=O)O)CC3)N(C(=O)Cc3cc(Cl)c(NC(=O)c4csc5ccccc45)cc3Cl)C2)CC1=O` [Example 153, Trans-4-[1-[[4-[(benzo[b]thiophen-3-ylcarbonyl)amino]-2,5-dichlorophenyl]acetyl]-(4S)-(4-methyl-3-oxopiperazin-1-yl)-(2S)-pyrrolidinylmethoxy]cyclohexanecarboxylic acid] the same measures were 1.5 nM and 9.3 nM.
As for `CC(C)(C)N1CCN([C@H]2C[C@@H](CO[C@H]3CC[C@H](C(=O)O)CC3)N(C(=O)Cc3cc(Cl)c(NC(=O)c4coc5ccccc45)cc3Cl)C2)CC1` [Example 114, Trans-4-[1-[[4-[(benzo[b]furan-3-ylcarbonyl)amino]-2,5-dichlorophenyl]acetyl]-(4S)-[4-(tert-butyl)piperazin-1-yl]-(2S)-pyrrolidinylmethoxy]cyclohexanecarboxylic acid], the Ki stood at 3 nM and the IC50 came out at 8.9 nM.
With `C[C@@H]1CN([C@H]2C[C@@H](CO[C@H]3CC[C@H](C(=O)O)CC3)N(C(=O)Cc3cc(Cl)c(NC(=O)c4c[nH]c5ccccc45)cc3Cl)C2)C[C@H](C)O1` [Example 89, Trans-4-[1-[[2,5-dichloro-4-[(1H-indol-3-ylcarbonyl)amino]phenyl]acetyl]-(4S)-(cis-2,6-dimethylmorpholin-4-yl)-(2S)-pyrrolidinylmethoxy]cyclohexanecarboxylic acid], affinity was put at a Ki of 0.96 nM and the IC50 was 2.3 nM.
